Broadly, the IC50 is the concentration at which inhibition is half-maximal.

The target of the assay is Human V1b receptor (Homo sapiens (Human), UniProt P47901). Briefly: Binding Test for V1b Receptor ([3H]AVP, crude membrane preparation of 293FT cells). Particulars: inhibition of [3H]AVP binding (0.4 to 1 nmol/L), room temperature, 60 minutes. As to the method:
Binding Test for V1b Receptor
Human V1b receptor was transiently expressed in 293FT cells (Invitrogen). The cells were collected and then homogenated in a 15 mmol/L tris-hydrochloric acid buffer (pH 7.4 and containing 2 mmol/L magnesium chloride, 0.3 mmol/L ethylenediaminetetracetic acid, and 1 mmol/L glycol ether diaminetetraacetic acid). The resulting homogenate was centrifuged at 50,000×g at 4° C. for 20 minutes. The precipitate was resuspended in a 75 mmol/L tris-hydrochloric acid buffer (pH 7.4 and containing 12.5 mmol/L magnesium chloride, 0.3 mmol/L ethylenediaminetetracetic acid, 1 mmol/L glycol ether diaminetetraacetic acid, and 250 mmol/L sucrose) to give a crude membrane preparation, which was stored at −80° C. until the binding test was initiated. In the binding test, the crude membrane preparation was diluted with a 50 mmol/L tris-hydrochloric acid buffer (pH 7.4 and containing 10 mmol/L magnesium chloride and 0.1% bovine serum albumin) and mixed with each test compound and [^3H]AVP (final concentration: 0.4 to 1 nmol/L), followed by incubation at room temperature for 60 minutes. The test compound was serially diluted with DMSO so that it would have final concentrations of 0.01 nmol/L to 1 μmol/L at the time of mixing. After the incubation, the mixture was suction filtered through a GF/C filter that was preliminarily impregnated with 0.3% polyethyleneimine. The GF/C filter was dried and after adding a scintillator, the residual radioactivity on the filter was measured using TopCount (PerkinElmer Inc.). The radioactivity in the presence of unlabeled AVP at […] was defined as 0%, and the radioactivity in the absence of unlabeled AVP was defined as 100%. A dose-response curve was plotted from radio activities in the presence of a test compound at various concentrations, and the 50% inhibitory concentration (IC50 value) of the test compound was calculated.

Sequence of Human V1b receptor (P47901 whole entry): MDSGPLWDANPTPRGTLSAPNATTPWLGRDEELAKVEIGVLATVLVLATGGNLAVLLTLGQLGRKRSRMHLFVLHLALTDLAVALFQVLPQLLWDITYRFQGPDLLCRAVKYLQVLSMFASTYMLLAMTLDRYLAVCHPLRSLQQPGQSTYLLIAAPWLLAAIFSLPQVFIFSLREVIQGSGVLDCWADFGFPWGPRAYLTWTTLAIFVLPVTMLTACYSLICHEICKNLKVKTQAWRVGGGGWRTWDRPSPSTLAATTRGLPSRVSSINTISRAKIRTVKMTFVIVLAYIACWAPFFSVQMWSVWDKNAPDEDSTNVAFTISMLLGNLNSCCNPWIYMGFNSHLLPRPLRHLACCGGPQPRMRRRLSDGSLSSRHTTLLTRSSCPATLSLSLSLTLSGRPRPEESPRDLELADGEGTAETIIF

For `COc1cccc(-c2nc(-c3ccc(CCN4CCOCC4)cc3)cn2CC(=O)NC(C)C)n1` [Example A-29, 2-[2-(6-methoxypyridin-2-yl)-4-{4-[2-(morpholin-4-yl)ethyl]phenyl}-1H-imidazol-1-yl]-N-(propan-2-yl)acetamide], the IC50 came out at 27 nM. The value for `CC(C)NC(=O)Cn1cc(-c2ccc(CCN3CCOCC3)nc2)nc1-c1cccc(Cl)c1` [Example A-30, 2-[2-(3-chlorophenyl)-4-{6-[2-(morpholin-4-yl)ethyl]pyridin-3-yl}-1H-imidazol-1-yl]-N-(propan-2-yl)acetamide] was 21 nM; that for `CCN(CC)CCc1ccc(-c2cn(CC(=O)NC(C)C)c(-c3ccc(F)c(OC)c3)n2)cc1` [Example A-31, 2-[4-{4-[2-(diethylamino)ethyl]phenyl}-2-(4-fluoro-3-methoxyphenyl)-1H-imidazol-1-yl]-N-(propan-2-yl)acetamide] was 10 to 100 nM; that for `CCN(CCOC)CCc1ccc(-c2cn(CC(=O)NC(C)C)c(-c3ccc(F)c(OC)c3)n2)cc1` [Example A-32, 2-[4-(4-{2-[ethyl(2-methoxyethyl)amino]ethyl}phenyl)-2-(4-fluoro-3-methoxyphenyl)-1H-imidazol-1-yl]-N-(propan-2-yl)acetamide] was 100 to 1000 nM. For `CC(C)NC(=O)Cn1cc(-c2ccc(OCCN3CCCCC3)cc2)nc1-c1cccc(Cl)c1` [Example A-33, 2-[2-(3-chlorophenyl)-4-{4-[2-(piperidin-1-yl)ethoxy]phenyl}-1H-imidazol-1-yl]-N-(propan-2-yl)acetamide] the value was 100 to 1000 nM.

As to `CC(C)NC(=O)Cn1cc(-c2cccc(OCCN3CCCCC3)c2)nc1-c1cccc(Cl)c1` [Example A-34, 2-[2-(3-chlorophenyl)-4-{3-[2-(piperidin-1-yl)ethoxy]phenyl}-1H-imidazol-1-yl]-N-(propan-2-yl)acetamide], the IC50 lay within 100 to 1000 nM. `CC(C)NC(=O)Cn1cc(-c2cccc(OCCCN3CCCCC3)c2)nc1-c1cccc(Cl)c1` [Example A-35, 2-[2-(3-chlorophenyl)-4-{3-[3-(piperidin-1-yl)propoxy]phenyl}-1H-imidazol-1-yl]-N-(propan-2-yl)acetamide] showed an IC50 of 100 to 1000 nM. The value for `COc1cccc(-c2nc(-c3ccc(CCN4CCOCC4)cc3)c(C)n2CC(=O)NC(C)C)c1` [Example A-36, 2-[2-(3-methoxyphenyl)-5-methyl-4-{4-[2-(morpholin-4-yl)ethyl]phenyl}-1H-imidazol-1-yl]-N-(propan-2-yl)acetamide] was 20 nM; that for `COc1cccc(-c2nc(-c3ccc(CCN4CCCCC4)cc3)cn2CC(=O)NC(C)C)c1` [Example A-37, 2-[2-(3-methoxyphenyl)-4-{4-[2-(piperidin-1-yl)ethyl]phenyl}-1H-imidazol-1-yl]-N-(propan-2-yl)acetamide] was 10 to 100 nM; that for `COc1cccc(-c2nc(-c3ccc(CCN4CCOCC4)cc3)cn2CC(=O)NC(C)C)c1` [Example A-38, 2-[2-(3-methoxyphenyl)-4-{4-[2-(morpholin-4-yl)ethyl]phenyl}-1H-imidazol-1-yl]-N-(propan-2-yl)acetamide] was 10 nM. For `CC(C)NC(=O)Cn1cc(-c2ccc(CCN3CCOCC3)cc2)nc1-c1ccc(F)c(Cl)c1` [Example A-39, 2-[2-(3-chloro-4-fluorophenyl)-4-{4-[2-(morpholin-4-yl)ethyl]phenyl}-1H-imidazol-1-yl]-N-(propan-2-yl)acetamide] the value was 1 nM; for `COc1cncc(-c2nc(-c3ccc(CCN4CCOCC4)cc3)cn2CC(=O)NC(C)C)c1` [Example A-40, 2-[2-(5-methoxypyridin-3-yl)-4-{4-[2-(morpholin-4-yl)ethyl]phenyl}-1H-imidazol-1-yl]-N-(propan-2-yl)acetamide], 10 to 100 nM; for `COc1cc(-c2nc(-c3ccc(CCN4CCOCC4)cc3)cn2CC(=O)NC(C)C)ccn1` [Example A-41, 2-[2-(2-methoxypyridin-4-yl)-4-{4-[2-(morpholin-4-yl)ethyl]phenyl}-1H-imidazol-1-yl]-N-(propan-2-yl)acetamide], 100 to 1000 nM.

Source of the values: US9522914B2, “Azole derivative” (TAISHO PHARMACEUTICAL CO., LTD, priority 2011, dated 2016).
